Where two headings read alike, the source gives them in different places.
Molecular target: T1, LRRK2 Ser935 phosphorylation in SH-SY5Y cells over-expressing recombinant full length LRRK2 (Homo sapiens, UniProt Q5S007)
T1 construct: A BacMam virus expressing full length recombinant LRRK2 was purchased from Invitrogen; host or cells: SH-SY5Y (BacMam transduction)
Assay: Recombinant cellular LRRK2 AlphaScreen assay
Assay type: cell-based
Summary of the method: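 SH-SY5Y cells transduced with BacMam full-length LRRK2 (MOI 50, 24 h) were treated with compound, top final 10 uM, for 60 min at 37° C. Lysates were assayed by AlphaScreen for pSer935 and total LRRK2. Dose-response fitted to a sigmoidal model.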

[1] = read-out: pIC50 in the recombinant cellular LRRK2 alphaScreen assay (converted)
[2] = LRRK2 Ser935 phosphorylation, 60 minutes
[3] = LRRK2 Ser935 phosphorylation, 60 minutes, read-out: recombinant cellcular LRRK2 alphaScreen assay (pIC50) (converted)

T1 sequence (Q5S007 whole entry): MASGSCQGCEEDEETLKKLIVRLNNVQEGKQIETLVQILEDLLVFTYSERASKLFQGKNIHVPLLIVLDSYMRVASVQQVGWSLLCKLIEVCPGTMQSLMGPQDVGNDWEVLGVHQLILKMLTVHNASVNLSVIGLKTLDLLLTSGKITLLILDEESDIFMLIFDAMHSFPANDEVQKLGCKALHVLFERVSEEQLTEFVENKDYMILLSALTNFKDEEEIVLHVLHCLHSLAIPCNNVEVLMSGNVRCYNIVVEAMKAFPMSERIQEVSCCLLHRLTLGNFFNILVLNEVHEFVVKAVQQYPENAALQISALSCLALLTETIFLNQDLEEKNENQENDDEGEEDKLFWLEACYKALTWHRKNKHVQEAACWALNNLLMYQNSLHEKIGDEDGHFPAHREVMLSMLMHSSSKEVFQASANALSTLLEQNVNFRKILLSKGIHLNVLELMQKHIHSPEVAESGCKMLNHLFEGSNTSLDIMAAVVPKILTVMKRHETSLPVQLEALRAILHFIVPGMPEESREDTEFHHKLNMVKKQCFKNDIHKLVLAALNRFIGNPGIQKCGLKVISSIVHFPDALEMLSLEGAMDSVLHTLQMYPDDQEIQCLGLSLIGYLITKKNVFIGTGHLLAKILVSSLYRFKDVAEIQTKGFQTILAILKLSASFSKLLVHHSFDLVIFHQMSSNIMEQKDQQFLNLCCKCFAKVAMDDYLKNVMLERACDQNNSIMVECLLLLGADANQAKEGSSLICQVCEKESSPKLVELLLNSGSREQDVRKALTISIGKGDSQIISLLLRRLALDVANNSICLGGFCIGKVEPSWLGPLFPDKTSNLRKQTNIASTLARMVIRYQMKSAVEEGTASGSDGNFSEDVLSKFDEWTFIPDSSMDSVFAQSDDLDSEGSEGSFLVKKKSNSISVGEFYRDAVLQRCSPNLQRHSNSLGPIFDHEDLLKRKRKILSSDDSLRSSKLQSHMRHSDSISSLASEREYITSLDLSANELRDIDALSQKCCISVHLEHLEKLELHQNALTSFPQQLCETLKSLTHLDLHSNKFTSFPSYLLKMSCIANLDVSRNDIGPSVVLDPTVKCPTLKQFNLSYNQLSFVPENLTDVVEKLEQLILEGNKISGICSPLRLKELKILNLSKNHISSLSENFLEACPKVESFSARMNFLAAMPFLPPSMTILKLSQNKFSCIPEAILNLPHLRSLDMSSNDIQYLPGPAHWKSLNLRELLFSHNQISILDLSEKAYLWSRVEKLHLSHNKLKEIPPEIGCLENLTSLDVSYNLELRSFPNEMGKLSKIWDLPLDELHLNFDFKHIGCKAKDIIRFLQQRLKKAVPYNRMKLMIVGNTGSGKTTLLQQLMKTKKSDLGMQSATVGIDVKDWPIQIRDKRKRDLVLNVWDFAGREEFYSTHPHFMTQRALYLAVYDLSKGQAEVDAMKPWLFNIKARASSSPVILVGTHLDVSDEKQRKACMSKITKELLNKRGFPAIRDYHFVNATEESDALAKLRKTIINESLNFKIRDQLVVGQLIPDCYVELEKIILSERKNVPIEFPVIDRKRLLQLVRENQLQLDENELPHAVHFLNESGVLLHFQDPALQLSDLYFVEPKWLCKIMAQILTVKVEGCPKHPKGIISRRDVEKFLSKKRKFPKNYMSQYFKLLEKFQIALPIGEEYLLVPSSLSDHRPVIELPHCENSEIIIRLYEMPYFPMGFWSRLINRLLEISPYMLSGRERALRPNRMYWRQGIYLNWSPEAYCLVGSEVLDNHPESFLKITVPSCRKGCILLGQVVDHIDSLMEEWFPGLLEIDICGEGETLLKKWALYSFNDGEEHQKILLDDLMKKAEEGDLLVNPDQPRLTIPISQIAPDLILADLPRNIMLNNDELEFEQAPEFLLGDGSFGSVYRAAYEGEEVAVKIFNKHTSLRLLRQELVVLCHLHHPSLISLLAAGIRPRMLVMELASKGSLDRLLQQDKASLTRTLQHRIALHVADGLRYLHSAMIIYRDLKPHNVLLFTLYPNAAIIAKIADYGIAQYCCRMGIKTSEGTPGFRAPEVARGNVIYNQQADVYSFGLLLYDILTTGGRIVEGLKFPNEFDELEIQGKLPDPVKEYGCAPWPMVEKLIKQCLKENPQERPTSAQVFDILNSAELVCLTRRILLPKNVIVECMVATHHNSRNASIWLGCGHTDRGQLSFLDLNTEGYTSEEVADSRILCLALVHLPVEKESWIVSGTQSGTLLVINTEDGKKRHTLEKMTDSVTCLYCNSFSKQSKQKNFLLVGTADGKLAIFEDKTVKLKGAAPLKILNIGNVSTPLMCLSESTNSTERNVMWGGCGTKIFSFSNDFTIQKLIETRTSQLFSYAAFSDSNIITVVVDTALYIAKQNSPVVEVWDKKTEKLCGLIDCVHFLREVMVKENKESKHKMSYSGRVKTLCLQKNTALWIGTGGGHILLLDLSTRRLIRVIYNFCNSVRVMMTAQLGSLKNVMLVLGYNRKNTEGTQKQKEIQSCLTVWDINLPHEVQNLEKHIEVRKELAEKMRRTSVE

Row | Compound | IC50 [1] [nM] | recombinant cellcular LRRK2 alphaScreen assay (pIC50) [2] | IC50 [3] [nM]
1 | CCOc1nc(Nc2cnn(CCOC)c2Cl)nc2[nH]ccc12 [Example E21, N-(5-chloro-1-(2-methoxyethyl)-1H-pyrazol-4-yl)-4-ethoxy-7H-pyrrolo-[2,3-d]-pyrimidin-2-amine] | ≤ 100 |  | 
2 | trans-2-(5-chloro-4-((4-ethoxy-7H-pyrrolo-[2,3-d]-pyrimidin-2-yl)amino)-1H-pyrazol-1-yl)-cyclopentanol [Example E37] |  | 7.6 | 
3 | CCOc1nc(Nc2cnn(C3CCOCC3)c2C2CC2)nc2[nH]ccc12 [Example E44, N-(5-cyclopropyl-1-(tetrahydro-2H-pyran-4-yl)-1H-pyrazol-4-yl)-4-ethoxy-7H-pyrrolo-[2,3-d]pyrimidin-2-amine] | ≤ 100 |  | 63.1
4 | CCOc1nc(Nc2cnn(C3CCCC3(C)O)c2C)nc2[nH]ccc12 (racemic) [Example E70, Trans-2-(4-((4-ethoxy-7H-pyrrolo-[2,3-d]pyrimidin-2-yl)amino)-5-methyl-1H-pyrazol-1-yl)-1-methylcyclopentanol] | ≤ 100 |  | 
5 | trans-2-(5-chloro-4-((4-ethoxy-7H-pyrrolo-[2,3-d]-pyrimidin-2-yl)amino)-1H-pyrazol-1-yl)cyclopentanol [Example E38] |  | 7.6 | 
6 | cis-3-(4-((4-ethoxy-7H-pyrrolo[2,3-d]pyrimidin-2-yl)amino)-5-methyl-1H-pyrazol-1-yl)cyclopentanol [Example E56] |  | 7.8 | 
7 | CCOc1nc(Nc2cnn(C3CN(C4COC4)CCO3)c2Cl)nc2[nH]ccc12 (single isomer, unassigned) [Example E141, N-(5-chloro-1-(4-(oxetan-3-yl)morpholin-2-yl)-1H-pyrazol-4-yl)-4-ethoxy-7H-pyrrolo[2,3-d]pyrimidin-2-amine] | ≤ 100 |  | 15.8
8 | CCOc1nc(Nc2cnn(CCN3CCO[C@H](C(F)F)C3)c2C)nc2[nH]ccc12 [Example E100, (S)—N-(1-(2-(2-(difluoromethyl)morpholino)ethyl)-5-methyl-1H-pyrazol-4-yl)-4-ethoxy-7H-pyrrolo[2,3-d]pyrimidin-2-amine] | ≤ 100 |  | 31.6
9 | trans-2-(4-((4-ethoxy-7H-pyrrolo-[2,3-d]pyrimidin-2-yl)amino)-5-methyl-1H-pyrazol-1-yl)-cyclopentanol [Example E40] |  | 7.8 | 
10 | CCOc1nc(Nc2cnn(C3CC(N4CCOCC4)C3)c2C)nc2[nH]ccc12 (stereo not shown) [Example E86, 4-ethoxy-N-(5-methyl-1-(3-morpholinocyclobutyl)-1H-pyrazol-4-yl)-7H-pyrrolo[2,3-d] pyrimidin-2-amine] | ≤ 100 |  | 39.8
11 | CCOc1nc(Nc2cnn(C3CC(O)C3)c2C)nc2[nH]ccc12 (stereo not shown) [Example E52, 3-(4-((4-ethoxy-7H-pyrrolo-[2,3-d]-pyrimidin-2-yl)-amino)-5-methyl-1H-pyrazol-1-yl)cyclo-butanol] | ≤ 100 |  | 12.6
12 | CCOc1nc(Nc2cnn(CCN3CCOCC3)c2C)nc2[nH]ccc12 [Example E45, 4-ethoxy-N-(5-methyl-1-(2-morpholinoethyl)-1H-pyrazol-4-yl)-7H-pyrrolo-[2,3-d]pyrimidin-2-amine] | ≤ 100 |  | 20
13 | CCOc1nc(Nc2cnn([C@H]3CCN(C4COC4)C[C@@H]3F)c2Cl)nc2[nH]ccc12 (single isomer, unassigned) [Example E104] | ≤ 100 |  | 31.6
14 | CCOc1nc(Nc2cnn(C3CCN(C4COC4)CC3(F)F)c2Cl)nc2[nH]ccc12 (single isomer, unassigned) [Example E134, N-(5-chloro-1-(3,3-difluoro-1-(oxetan-3-yl)piperidin-4-yl)-1H-pyrazol-4-yl)-4-ethoxy-7H-pyrrolo[2,3-d]pyrimidin-2-amine] |  |  | 5.01
15 | CCOc1nc(Nc2cnn(CC(C)(C)O)c2C)nc2[nH]ccc12 [Example E3, 1-(4-((4-ethoxy-7H-pyrrolo-[2,3-d]pyrimidin-2-yl)amino)-5-methyl-1H-pyrazol-1-yl)-2-methylpropan-2-ol] | ≤ 100 |  | 79.4
16 | CCOc1nc(Nc2cnn(C3CCOCC3C)c2C)nc2[nH]ccc12 (single isomer, unassigned) [Example E113, (cis)-4-ethoxy-N-(5-methyl-1-(3-methyltetrahydro-2H-pyran-4-yl)-1H-pyrazol-4-yl)-7H-pyrrolo[2,3-d]pyrimidin-2-amine] | ≤ 100 |  | 25.1
17 | CCOc1nc(Nc2cnn(C3CCN(C)C3)c2C)nc2[nH]ccc12 (single isomer, unassigned) [Example E14, 4-ethoxy-N-(5-methyl-1-(1-methylpyrrolidin-3-yl)-1H-pyrazol-4-yl)-7H-pyrrolo-[2,3-d]-pyrimidin-2-amine] | ≤ 100 |  | 63.1
18 | trans-2-(4-((4-ethoxy-7H-pyrrolo-[2,3-d]pyrimidin-2-yl)amino)-5-methyl-1H-pyrazol-1-yl)-cyclopentanol [Example E41] |  | 7.8 | 
19 | CCOc1nc(Nc2cnn([C@@H]3CCN(C4COC4)C[C@H]3F)c2Cl)nc2[nH]ccc12 (single isomer, unassigned) [Example E105] | ≤ 100 |  | 25.1
20 | CCOc1nc(Nc2cnn(C3CN(C)CCC3(F)F)c2C)nc2[nH]ccc12 (single isomer, unassigned) [Example E121, N-(1-(4,4-difluoro-1-methylpiperidin-3-yl)-5-methyl-1H-pyrazol-4-yl)-4-ethoxy-7H-pyrrolo[2,3-d]pyrimidin-2-amine] | ≤ 100 |  | 0.631
21 | CCOc1nc(Nc2cnn(C3CCN(C4COC4)C3)c2C)nc2[nH]ccc12 (single isomer, unassigned) [Example E67, 4-ethoxy-N-(5-methyl-1-(1-(oxetan-3-yl)-pyrrolidin-3-yl)-1H-pyrazol-4-yl)-7H-pyrrolo-[2,3-d]pyrimidin-2-amine] | ≤ 100 |  | 
22 | CCOc1nc(Nc2cnn(C3CN(C4COC4)CCC3(F)F)c2Cl)nc2[nH]ccc12 (single isomer, unassigned) [Example E124, N-(5-chloro-1-(4,4-difluoro-1-(oxetan-3-yl)piperidin-3-yl)-1H-pyrazol-4-yl)-4-ethoxy-7H-pyrrolo[2,3-d]pyrimidin-2-amine] |  |  | 0.794

— US10618901B2 (GlaxoSmithKline Intellectual Property Development Limited, priority 2014, dated 2020)
